In patent publication US20250127165A1, “USE OF 2-AMINO-3-PHENYLBUTYRIC ACID OR 2,6-DIAMINO-3-METHYLHEXANOIC ACID AS PLANT IMMUNE RESISTANCE INDUCER” (NANJING TIANNONG BIOTECHNOLOGY CO., LTD., priority 2021, published 2025):

What was measured:
[1] = tested on: wheat powdery mildew; experiment: Induced resistance of wheat seedlings to powdery mildew infection (pot test); assay type: in vivo, wheat (NAU0686); conditions: for disease index / relative immunization effect: concentration higher than 1,000 nM
Procedure: 2-amino-3-phenylbutyric acid was dissolved in distilled water and then gradiently diluted with distilled water into solutions of 10 nM, 100 nM, 1,000 nM, and 10,000 nM, and a blank control was set up. After germination, wheat (NAU0686) seeds were planted in sterilized soil culture pot, and cultured in a greenhouse at 23° C. (+1° C.) and 12-h light/dark conditions. When the seedlings grew to the 1-leaf-1-heart stage, a solution of 2-amino-3-phenylbutyric acid at the above concentrations was sprayed onto the stems and leaves of wheat seedlings, and repeated the treatment at 24-hour intervals for a total of two treatments. After 24 hours, fresh wheat powdery mildew spores were uniformly sprinkled onto the wheat leaves, and each treatment comprised three pots of seedlings, with 20 plants per pot. After 10 days, the disease grade of wheat in each treatment group was investigated, and the morbidity degree was recorded according to the grading standard of wheat powdery in the “Pesticides-Guidelines for the Field Efficacy Trails” (I), and the disease index and the relative immunization effect were calculated in the same manner as those of tomato spotted wilt.
Grading Standard of Wheat Powdery Mildew (per leaf): • Grade 1: The area of diseased spots accounts for 5% or less of the whole leaf area; • Grade 3: The area of diseased spots accounts for 6%-15% of the whole leaf; • Grade 5: The area of diseased spots accounts for 16%-25% of the whole leaf; • Grade 7: The area of diseased spots accounts for 26%-50% of the whole leaf; • Grade 9: The area of diseased spots accounts for 50% or more of the whole leaf area.

[2] = tested on: Arabidopsis thaliana; experiment: Induced resistance of Arabidopsis thaliana to high temperature stress; assay type: in vivo; conditions: for heat injury index (%): 45° C. 12 h, 7 days recovery; for PIABS (photosynthetic performance index): after 45° C. for 12 h
Procedure: 2-amino-3-phenylbutyric acid was dissolved in distilled water and then gradiently diluted with distilled water into solutions of 100 nM, 1,000 nM, and 10,000 nM, and a blank control was set up, while 0.02% Tween 20 was added as surfactant. Four groups of replicates were set up for each concentration, and set up a blank control at room temperature. Arabidopsis thaliana seeds were planted in a pot with a diameter of 8.5 cm at about 50 seeds per pot, and grown in a greenhouse at a temperature of 22° C., a humidity of 60%-70%, and a light intensity of 100 μmol m^−2s^−1 (16 h light/8 h darkness). The treatment was initiated at the 21 d of seedling stage of Arabidopsis thaliana by spraying 2-amino-3-phenylbutyric acid solution on the leaf surface, and spraying twice within 24 hours. 24 hours after the second treatment, the plants were transferred to a light incubator at a temperature of 45° C. for high temperature stress treatment. After 12 h of treatment, they were treated in the dark at room temperature for 30 min, and then the chlorophyll fluorescence of the Arabidopsis thaliana leaves was measured with Plant Efficiency Handy PEA. Then, the plants were removed and transferred to a greenhouse at 25° C. for 7 days for recovery. The injured conditions of the plants were observed and the grade of hot injury was calculated, where the grading standard of heat injury is shown in Table 1, and the formula for calculating the heat injury index is as follows.
The concentrations of 2,6-diamino-3-methylhexanoic acid used in this trail are 0, 1, 10, 100 and 1,000 nM, and 0.02% Tween 20 is added as a surfactant. Four groups of replicates were set up. Other methods were the same as 2-amino-3-phenylbutyric acid, and the effect of 2,6-diamino-3-methylhexanoic acid to induce the resistance of Arabidopsis thaliana to high temperature stress was investigated.

[3] = tested on: wheat; experiment: Induced resistance of wheat to drought stress (25% PEG-6000); assay type: in vivo; conditions: for drought injury index (%) / dry weight (g) aboveground part / dry weight (g) underground part / fresh weight (g) aboveground part / fresh weight (g) underground part / length of root (cm): 6 days drought stress, 7 days recovery
Procedure: Wheat was hydroponic cultured in a 6-mesh sieve used as a container at 50 grains per sieve, and ½ Hoagland nutrient solution was changed every three days. When the wheat grew to the stage of two leaves and one bud, 2-amino-3-phenylbutyric acid solution was sprayed on the leaf surface, and the concentration of 2-amino-3-phenylbutyric acid was 0, 100 and 1,000 nM, and 0.02% Tween 20 was added as surfactant. After two days of continuous spraying, the hydroponic nutrient solution was replaced with ½ Hoagland nutrient solution containing 25% PEG-6000 on the 3rd day for stress treatment. After 6 days of drought stress, rehydration treatment was conducted. And after 7 days of recovery growth in normal nutrient solution, the drought injury index was observed and determined, and the root length and biomass were determined.
The performance characteristics of drought injury of leaves are similar to those of salt injury. The rate of drought injury and the drought injury index are introduced by using the evaluation indexes of salt injury. The formula for calculating the drought injury index is as follows, and the grading standard of drought injury is shown in Table 15.

[4] = tested on: cotton (Sikang 1); experiment: Induced resistance of cotton to salt stress (100 mM NaCl); assay type: in vivo; conditions: three days
Procedure: The experimental material was “Sikang 1” cotton, which was hydroponic cultured in a 500 mL plastic cup and ½ Hoagland nutrient solution was changed every three days. When the cotton seedling grew until the second true leaf fully unfolded, the leaf surface was sprayed with 2-amino-3-phenylbutyric acid solution. The concentrations used in this experiment were 0, 1, 10, 100, and 1,000 nM, and 0.02% Tween 20 was added as surfactant. The spraying was repeated once every 24 hours for a total of 2 times. On the second day after the treatment, NaCl was added to the ½ Hoagland nutrient solution to a final concentration of 100 mM to perform salt stress treatment. Each treatment was performed in triplicate. After three days of salt stress, rehydration treatment was performed, the salt injury symptoms of cotton were observed, and calculate the salt injury index was calculated. The formula is as follows: […]

[5] = 10,000 nM, versus untreated heat-stressed group

Row | SMILES | relative immunization effect (%) ([1]; 10 nM) | relative immunization effect (%) ([1]; 100 nM) | relative immunization effect (%) ([1]; 1,000 nM) | relative immunization effect (%) ([1]; 10,000 nM) | disease index [1] | relative immunization effect [1] | heat injury index (%) ([2]; 100 nM) | PIABS (photosynthetic performance index) ([2]; 100 nM) | heat injury index (%) ([2]; 1,000 nM) | PIABS (photosynthetic performance index) ([2]; 1,000 nM) | drought injury index (%) ([3]; 100 nM) | dry weight (g) aboveground part ([3]; 100 nM) [b g] | dry weight (g) underground part ([3]; 100 nM) [b g] | fresh weight (g) aboveground part ([3]; 100 nM) [b g] | fresh weight (g) underground part ([3]; 100 nM) [b g] | length of root (cm) ([3]; 100 nM) | decrease of drought injury index ([3]; 1,000 nM) [%] | increase of fresh weight of aboveground part compared with the control group ([3]; 1,000 nM) [%] | increase of fresh weight of underground part compared with the control group ([3]; 1,000 nM) [%] | increase of root length compared with the control group ([3]; 1,000 nM) [%] | also measured
1 | CC(CCCN)C(N)C(=O)O (stereo not drawn) [2,6-diamino-3-methylhexanoic acid] | 28.13 | 48.99 | 65.26 | 73.45 | lower than 50 | more than 50% | 29 | 5.73 ± 0.17 c | 9 | 9.49 ± 0.14 b | 40 | 0.94 ± 0.01 | 0.42 ± 0.01 | 7.70 ± 0.02 | 3.79 ± 0.01 | 14.35 ± 0.08 b cm | 59 | 31.03 | 34.42 | 9.77 | heat injury index (%) ([2]; 1 nM): 49%; PIABS (photosynthetic performance index) ([2]; 1 nM): 1.84 ± 0.02 e; heat injury index (%) ([2]; 10 nM): 38%; PIABS (photosynthetic performance index) ([2]; 10 nM): 3.58 ± 0.11 days; increase of PIABS compared with the control group ([2]; 1,000 nM): 36 fold; decrease of heat injury index ([2]; 1,000 nM, versus untreated heat-stressed group): 64%; drought injury index (%) ([3]; 1,000 nM): 21%; dry weight (g) aboveground part ([3]; 1,000 nM): 1.05 ± 0.01 a g; dry weight (g) underground part ([3]; 1,000 nM): 0.49 ± 0.01 a g; fresh weight (g) aboveground part ([3]; 1,000 nM): 8.99 ± 0.01 a g; fresh weight (g) underground part ([3]; 1,000 nM): 4.59 ± 0.03 a g; length of root (cm) ([3]; 1,000 nM): 14.63 ± 0.12 a cm; mortality (%) ([4]; 1 nM): 46%; salt injury index (%) ([4]; 1 nM): 53%; mortality (%) ([4]; 10 nM): 40%; salt injury index (%) ([4]; 10 nM): 49%; mortality (%) ([4]; 100 nM): 27%; salt injury index (%) ([4]; 100 nM): 42%; mortality (%) ([4]; 1,000 nM): 23%; salt injury index (%) ([4]; 1,000 nM): 36%
2 | CC(c1ccccc1)C(N)C(=O)O (stereo not drawn) [2-amino-3-phenylbutyric acid] | 19.88 | 30.77 | 55.38 | 66.92 | lower than 50 | more than 50% | 47 | 26.13 ± 7.37 bc | 31 | 27.27 ± 3.93 bc | 46 | 0.87 ± 0.01 | 0.38 ± 0.01 | 7.51 ± 0.24 | 3.77 ± 0.23 | 14.23 ± 0.12 a cm | 46 | 46.33 | 55.14 | 11.87 | heat injury index (%) ([2]; 10,000 nM): 16%; PIABS (photosynthetic performance index) ([2]; 10,000 nM): 33.40 ± 3.91 b; decrease of heat injury index [2, 5]: 56%; increase of PIABS [2, 5]: 134%; drought injury index (%) ([3]; 1,000 nM): 27%; dry weight (g) aboveground part ([3]; 1,000 nM): 0.94 ± 0.05 a g; dry weight (g) underground part ([3]; 1,000 nM): 0.43 ± 0.02 a g; fresh weight (g) aboveground part ([3]; 1,000 nM): 8.97 ± 0.32 a g; fresh weight (g) underground part ([3]; 1,000 nM): 4.53 ± 0.01 a g; length of root (cm) ([3]; 1,000 nM): 14.70 ± 0.37 a cm; mortality (%) ([4]; 1 nM): 49%; salt injury index (%) ([4]; 1 nM): 66.67%; mortality (%) ([4]; 10 nM): 46%; salt injury index (%) ([4]; 10 nM): 55%; mortality (%) ([4]; 100 nM): 32%; salt injury index (%) ([4]; 100 nM): 51%; mortality (%) ([4]; 1,000 nM): 28%; salt injury index (%) ([4]; 1,000 nM): 42%
